Activity calls are given as the source filed them. The rule behind the calls is not given here.
Test system: rodent lifetime carcinogenesis bioassay, tumor incidence TD50
Experiment: chronic cancer bioassays in animals – CPDB, compiled studies (AID 1745844)

C1CO1
TD50 (mouse, strain B6C3F1, females, inhaled, site: Harderian gland + lung, lesion: papillary cystadenoma, NOS + alveolar/bronchiolar adenoma + alveolar/bronchiolar carcinoma, dosed 102 weeks, study length 104 weeks): 45.8 mg/kg/day
TD50 (mouse, strain B6C3F1, females, inhaled, site: Harderian gland, lesion: papillary cystadenoma, NOS, dosed 102 weeks, study length 104 weeks): 142 mg/kg/day
TD50 (mouse, strain B6C3F1, females, inhaled, site: any site (literature study), lesion: several types, types named in the paper, dosed 102 weeks, study length 104 weeks): 103 mg/kg/day
TD50 (mouse, strain B6C3F1, females, inhaled, site: duodenum + Harderian gland + kidney + lung + mediastinum + mammary gland + mesenteric lymph node + multiple organs + spleen + uterus, lesion: malignant lymphoma, NOS + papillary cystadenoma, NOS + alveolar/bronchiolar adenoma + alveolar/bronchiolar carcinoma + adenocarc, dosed 102 weeks, study length 104 weeks): 39.2 mg/kg/day
TD50 (mouse, strain B6C3F1, females, inhaled, site: duodenum + kidney + mediastinum + mammary gland + mesenteric lymph node + multiple organs + spleen + uterus, lesion: malignant lymphoma, NOS + adenocarcinoma, NOS + adenosquamous carcinoma + malignant lymphoma, histiocytic type + adenoma, NOS, dosed 102 weeks, study length 104 weeks): 79.2 mg/kg/day
TD50 (mouse, strain B6C3F1, females, inhaled, site: duodenum + kidney + mediastinum + mesenteric lymph node + multiple organs + spleen + uterus, lesion: malignant lymphoma, NOS + malignant lymphoma, histiocytic type, dosed 102 weeks, study length 104 weeks): 139 mg/kg/day
TD50 (mouse, strain B6C3F1, females, inhaled, site: liver, lesion: hepatocellular adenoma + hepatocellular carcinoma + neoplastic nodule, dosed 102 weeks, study length 104 weeks): 149 mg/kg/day
TD50 (mouse, strain B6C3F1, females, inhaled, site: liver, lesion: hepatocellular adenoma, dosed 102 weeks, study length 104 weeks): 75.8 mg/kg/day
TD50 (mouse, strain B6C3F1, females, inhaled, site: lung, lesion: alveolar/bronchiolar adenoma + alveolar/bronchiolar carcinoma, dosed 102 weeks, study length 104 weeks): 61.8 mg/kg/day
TD50 (mouse, strain B6C3F1, females, inhaled, site: lung, lesion: alveolar/bronchiolar adenoma, dosed 102 weeks, study length 104 weeks): 87.5 mg/kg/day
TD50 (mouse, strain B6C3F1, females, inhaled, site: lung, lesion: alveolar/bronchiolar carcinoma, dosed 102 weeks, study length 104 weeks): 200 mg/kg/day
TD50 (mouse, strain B6C3F1, females, inhaled, site: mammary gland, lesion: adenocarcinoma, NOS + adenosquamous carcinoma, dosed 102 weeks, study length 104 weeks): 76.3 mg/kg/day
TD50 (mouse, strain B6C3F1, females, inhaled, site: uterus, lesion: adenocarcinoma, NOS + adenoma, NOS, dosed 102 weeks, study length 104 weeks): 250 mg/kg/day
TD50 (mouse, strain B6C3F1, females, inhaled, site: uterus, lesion: adenocarcinoma, NOS, dosed 102 weeks, study length 104 weeks): 297 mg/kg/day
TD50 (mouse, strain B6C3F1, males, inhaled, site: Harderian gland + lung, lesion: papillary cystadenoma, NOS + alveolar/bronchiolar adenoma + alveolar/bronchiolar carcinoma, dosed 102 weeks, study length 104 weeks): 51.2 mg/kg/day
TD50 (mouse, strain B6C3F1, males, inhaled, site: Harderian gland, lesion: papillary cystadenoma, NOS, dosed 102 weeks, study length 104 weeks): 110 mg/kg/day
TD50 (mouse, strain B6C3F1, males, inhaled, site: any site (literature study), lesion: several types, types named in the paper, dosed 102 weeks, study length 104 weeks): 108 mg/kg/day
TD50 (mouse, strain B6C3F1, males, inhaled, site: liver, lesion: hepatocellular adenoma + hepatocellular carcinoma + neoplastic nodule, dosed 102 weeks, study length 104 weeks): 273 mg/kg/day
TD50 (mouse, strain B6C3F1, males, inhaled, site: lung, lesion: alveolar/bronchiolar adenoma + alveolar/bronchiolar carcinoma, dosed 102 weeks, study length 104 weeks): 65.7 mg/kg/day
TD50 (mouse, strain B6C3F1, males, inhaled, site: lung, lesion: alveolar/bronchiolar adenoma, dosed 102 weeks, study length 104 weeks): 181 mg/kg/day
TD50 (mouse, strain B6C3F1, males, inhaled, site: lung, lesion: alveolar/bronchiolar carcinoma, dosed 102 weeks, study length 104 weeks): 110 mg/kg/day
TD50 (rat, strain Fischer 344/Mai fBR, females, inhaled, site: brain, lesion: several types, types named in the paper, dosed 76 weeks, study length 78 weeks): 237 mg/kg/day
TD50 (rat, strain Fischer 344/Mai fBR, females, inhaled, site: brain, lesion: several types, types named in the paper, dosed 101 weeks, study length 104 weeks): 143 mg/kg/day
TD50 (rat, strain Fischer 344/Mai fBR, females, inhaled, site: pituitary gland, lesion: adenoma, dosed 76 weeks, study length 78 weeks): 29.8 mg/kg/day (inactive)
TD50 (rat, strain Fischer 344/Mai fBR, males, inhaled, site: adrenal gland, lesion: pheochromocytoma, dosed 76 weeks, study length 78 weeks): 26.1 mg/kg/day (inactive)
TD50 (rat, strain Fischer 344/Mai fBR, males, inhaled, site: brain, lesion: astrocytoma, dosed 76 weeks, study length 78 weeks): 102 mg/kg/day
TD50 (rat, strain Fischer 344/Mai fBR, males, inhaled, site: brain, lesion: several types, types named in the paper, dosed 105 weeks, study length 108 weeks): 70.7 mg/kg/day
carcinogen call (rat, strain Fischer 344/Mai fBR, males, inhaled, site: pituitary gland, lesion: adenoma, dosed 76 weeks, study length 78 weeks): negative (inactive)
carcinogen call (rat, strain Fischer 344/Mai fBR, males, inhaled, site: testis, lesion: interstitial-cell tumor, dosed 76 weeks, study length 78 weeks): negative (inactive)
TD50 (rat, strain Fischer 344, males, inhaled, site: brain, lesion: glioma, dosed 101 weeks, study length 104 weeks): 121 mg/kg/day
TD50 (rat, strain Fischer 344, males, inhaled, site: peritoneum, lesion: mesothelioma, dosed 101 weeks, study length 104 weeks): 30.8 mg/kg/day
TD50 (rat, strain Fischer 344, males, inhaled, site: spleen, lesion: mononuclear-cell leukemia, dosed 101 weeks, study length 104 weeks): 47.3 mg/kg/day
TD50 (rat, strain Sprague-Dawley, females, by gavage, site: forestomach, lesion: squamous-cell carcinoma, dosed 107 weeks, study length 150 weeks): 10.6 mg/kg/day
TD50 (rat, strain Sprague-Dawley, females, by gavage, site: mammary gland, lesion: adenofibroma, dosed 107 weeks, study length 150 weeks): 10 mg/kg/day (inactive)
TD50 (rat, strain Sprague-Dawley, females, by gavage, site: stomach, lesion: several types, types named in the paper, dosed 107 weeks, study length 150 weeks): 7.43 mg/kg/day

From PubChem BioAssay AID1745844 (Carcinogenic Potency Database (CPDB), 2022)
